Data published in US20260130395A1, “Water Dispersible Botanical Compositions” (Aquila Black Limited, priority 2021, published 2026).

How the values were obtained:
[1] = Stability of cannabinoid compounds and Vitamin E components in Beverage 1 (AB White) by LCMSMS; type: physicochemical; conditions: AB White stored at 21-25° C.
[2] = Stability of cannabinoid entourage and Vitamin E components of the powder concentrate by LCMSMS; type: physicochemical; conditions: powder stored at 21-25° C.
Experimental: At each time period, 0.05 g of powder was dissolved in 10 ml-15 of ethanol, diluted to fall within the analytical range, and injected into the LCMSMS for analysis.

CCCCCc1cc(O)c2c(c1)OC(C)(CCC=C(C)C)C=C2 (stereo not drawn) [CBC, cannabichromene]
Stability of Plant-Derived Cannabinoid Compounds in AB White, 21-25° C. ([1]; 29 days): 0.317 µg/mL | Stability of Plant-Derived Cannabinoid Compounds in AB White, 21-25° C. ([1]; 30 days): 0.317 µg/mL | Stability of Plant-Derived Cannabinoid Compounds in AB White, 21-25° C. ([1]; 60 days): 0.306 µg/mL | Stability of Plant-Derived Cannabinoid Compounds in AB White, 21-25° C. ([1]; 90 days): 0.305 µg/mL | Stability of Plant-Derived Cannabinoid Compounds in AB White, 21-25° C. ([1]; 120 days): 0.318 µg/mL | Stability of Plant-Derived Cannabinoid Compounds in AB White, 21-25° C. ([1]; 150 days): 0.312 µg/mL | Stability of Plant-Derived Cannabinoid Compounds in AB White, 21-25° C. ([1]; 180 days): 0.315 µg/mL | Stability of Plant-Derived Cannabinoid Compounds in AB White, 21-25° C. ([1]; 210 days): 0.307 µg/mL | Stability of Plant-Derived Cannabinoid Compounds in AB White, 21-25° C. ([1]; 240 days): 0.304 µg/mL | Stability of Plant-Derived Cannabinoid Compounds in AB White, 21-25° C. ([1]; 270 days): 0.316 µg/mL | Stability of Plant-Derived Cannabinoid Compounds in AB White, 21-25° C. ([1]; 300 days): 0.312 µg/mL | Stability of Plant-Derived Cannabinoid Compounds in AB White, 21-25° C. ([1]; 330 days): 0.312 µg/mL | Stability of Plant-Derived Cannabinoid Compounds in AB White, 21-25° C. ([1]; 360 days): 0.310 µg/mL | Stability of Plant-Derived Cannabinoid Compounds in AB White, 21-25° C. ([1]; 390 days): 0.303 µg/mL | Stability of Plant-Derived Cannabinoid Compounds in AB White, 21-25° C. ([1]; 420 days): 0.312 µg/mL | Stability of Plant-Derived Cannabinoid Compounds in AB White, 21-25° C. ([1]; 450 days): 0.310 µg/mL | Stability of Plant-Derived Cannabinoid Compounds in AB White, 21-25° C. ([1]; 480 days): 0.294 µg/mL | Stability of Plant-Derived Cannabinoid Compounds in AB White, 21-25° C. ([1]; 510 days): 0.293 µg/mL | Stability of Plant-Derived Cannabinoid Compounds in AB White, 21-25° C. ([1]; 540 days): 0.294 µg/mL | Stability of Plant-Derived Cannabinoid Compounds in AB White, 21-25° C. ([1]; 570 days): 0.295 µg/mL | Stability of Plant-Derived Cannabinoid Compounds in Powder Concentrate ([2]; 0 days): 0.070 mg/g powder | Stability of Plant-Derived Cannabinoid Compounds in Powder Concentrate ([2]; 1 days): 0.072 mg/g powder | Stability of Plant-Derived Cannabinoid Compounds in Powder Concentrate ([2]; 2 days): 0.071 mg/g powder | Stability of Plant-Derived Cannabinoid Compounds in Powder Concentrate ([2]; 3 days): 0.073 mg/g powder | Stability of Plant-Derived Cannabinoid Compounds in Powder Concentrate ([2]; 5 days): 0.070 mg/g powder | Stability of Plant-Derived Cannabinoid Compounds in Powder Concentrate ([2]; 8 days): 0.071 mg/g powder | Stability of Plant-Derived Cannabinoid Compounds in Powder Concentrate ([2]; 9 days): 0.068 mg/g powder | Stability of Plant-Derived Cannabinoid Compounds in Powder Concentrate ([2]; 10 days): 0.071 mg/g powder | Stability of Plant-Derived Cannabinoid Compounds in Powder Concentrate ([2]; 11 days): 0.071 mg/g powder | Stability of Plant-Derived Cannabinoid Compounds in Powder Concentrate ([2]; 12 days): 0.069 mg/g powder | Stability of Plant-Derived Cannabinoid Compounds in Powder Concentrate ([2]; 15 days): 0.073 mg/g powder | Stability of Plant-Derived Cannabinoid Compounds in Powder Concentrate ([2]; 16 days): 0.073 mg/g powder | Stability of Plant-Derived Cannabinoid Compounds in Powder Concentrate ([2]; 17 days): 0.070 mg/g powder | Stability of Plant-Derived Cannabinoid Compounds in Powder Concentrate ([2]; 18 days): 0.072 mg/g powder | Stability of Plant-Derived Cannabinoid Compounds in Powder Concentrate ([2]; 19 days): 0.070 mg/g powder | Stability of Plant-Derived Cannabinoid Compounds in Powder Concentrate ([2]; 22 days): 0.071 mg/g powder | Stability of Plant-Derived Cannabinoid Compounds in Powder Concentrate ([2]; 23 days): 0.069 mg/g powder | Stability of Plant-Derived Cannabinoid Compounds in Powder Concentrate ([2]; 24 days): 0.068 mg/g powder | Stability of Plant-Derived Cannabinoid Compounds in Powder Concentrate ([2]; 25 days): 0.072 mg/g powder | Stability of Plant-Derived Cannabinoid Compounds in Powder Concentrate ([2]; 26 days): 0.071 mg/g powder | Stability of Plant-Derived Cannabinoid Compounds in Powder Concentrate ([2]; 29 days): 0.069 mg/g powder | Stability of Plant-Derived Cannabinoid Compounds in Powder Concentrate ([2]; 30 days): 0.072 mg/g powder | Stability of Plant-Derived Cannabinoid Compounds in Powder Concentrate ([2]; 60 days): 0.068 mg/g powder | Stability of Plant-Derived Cannabinoid Compounds in Powder Concentrate ([2]; 90 days): 0.068 mg/g powder | Stability of Plant-Derived Cannabinoid Compounds in Powder Concentrate ([2]; 120 days): 0.072 mg/g powder | Stability of Plant-Derived Cannabinoid Compounds in Powder Concentrate ([2]; 150 days): 0.072 mg/g powder | Stability of Plant-Derived Cannabinoid Compounds in Powder Concentrate ([2]; 180 days): 0.071 mg/g powder | Stability of Plant-Derived Cannabinoid Compounds in Powder Concentrate ([2]; 210 days): 0.072 mg/g powder | Stability of Plant-Derived Cannabinoid Compounds in Powder Concentrate ([2]; 240 days): 0.068 mg/g powder | Stability of Plant-Derived Cannabinoid Compounds in Powder Concentrate ([2]; 270 days): 0.072 mg/g powder | Stability of Plant-Derived Cannabinoid Compounds in Powder Concentrate ([2]; 300 days): 0.071 mg/g powder | Stability of Plant-Derived Cannabinoid Compounds in Powder Concentrate ([2]; 330 days): 0.069 mg/g powder | Stability of Plant-Derived Cannabinoid Compounds in Powder Concentrate ([2]; 360 days): 0.068 mg/g powder | Stability of Plant-Derived Cannabinoid Compounds in Powder Concentrate ([2]; 390 days): 0.068 mg/g powder | Stability of Plant-Derived Cannabinoid Compounds in Powder Concentrate ([2]; 420 days): 0.069 mg/g powder | Stability of Plant-Derived Cannabinoid Compounds in Powder Concentrate ([2]; 450 days): 0.073 mg/g powder | Stability of Plant-Derived Cannabinoid Compounds in Powder Concentrate ([2]; 480 days): 0.071 mg/g powder | Stability of Plant-Derived Cannabinoid Compounds in Powder Concentrate ([2]; 510 days): 0.069 mg/g powder | Stability of Plant-Derived Cannabinoid Compounds in Powder Concentrate ([2]; 540 days): 0.070 mg/g powder | Stability of Plant-Derived Cannabinoid Compounds in Powder Concentrate ([2]; 570 days): 0.069 mg/g powder
